Assay results taken from ChEMBL document CHEMBL1201862, “PubChem BioAssay data set” (2004).
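Grown in 96-well plates, cells were treated for 48 hours with each compound at five concentrations. Insufficient inhibition: endpoint recorded as highest concentration tested. GI50 is the concentration that inhibits growth by half.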 Calls of active or inactive are those of the source. Cut-off read from the data, not from the text of the source: active = GI50 up to about 1.1 µM and inactive = higher.

Assays:
Assay in all cases: growth of human tumour cells (NCI), 48 h
A498 = tested on: A498
A549 = tested on: A549
CAKI-1 = tested on: CAKI-1
DMS-114 = tested on: DMS-114
EKVX = tested on: EKVX
HCT-116 = tested on: HCT-116
KM-20L2 = tested on: KM-20L2
LXFL 529 = tested on: LXFL 529
M19-MEL = tested on: M19-MEL
MOLT-4 = tested on: MOLT-4
NCI-H226 = tested on: NCI-H226
NCI-H23 = tested on: NCI-H23
NCI-H460 = tested on: NCI-H460
NCI-H522 = tested on: NCI-H522
OVCAR-4 = tested on: OVCAR-4
OVCAR-5 = tested on: OVCAR-5
OVCAR-8 = tested on: OVCAR-8
RPMI-8226 = tested on: RPMI-8226
SF-268 = tested on: SF-268
SF-295 = tested on: SF-295
SF-539 = tested on: SF-539
SK-MEL-28 = tested on: SK-MEL-28
SNB-19 = tested on: SNB-19
SNB-78 = tested on: SNB-78
SR = tested on: SR
SW-620 = tested on: SW-620
U-251 = tested on: U-251
UACC-257 = tested on: UACC-257
UACC-62 = tested on: UACC-62
UO-31 = tested on: UO-31
786-0 = tested on: 786-0
ACHN = tested on: ACHN
BT-549 = tested on: BT-549
CCRF-CEM = tested on: CCRF-CEM
COLO 205 = tested on: COLO 205
DU-145 = tested on: DU-145
HCC 2998 = tested on: HCC 2998
HCT-15 = tested on: HCT-15
HL-60 = tested on: HL-60
HOP-62 = tested on: HOP-62
HOP-92 = tested on: HOP-92
HT-29 = tested on: HT-29
Hs-578T = tested on: Hs-578T
IGROV-1 = tested on: IGROV-1
K562 = tested on: K562
KM12 = tested on: KM12
LOX IMVI = tested on: LOX IMVI
M14 = tested on: M14
MCF7 = tested on: MCF7
MDA-MB-231 = tested on: MDA-MB-231
MDA-MB-435 = tested on: MDA-MB-435
MDA-N = tested on: MDA-N
Malme-3M = tested on: Malme-3M
NCI/ADR-RES = tested on: NCI/ADR-RES
OVCAR-3 = tested on: OVCAR-3
PC-3 = tested on: PC-3
RXF 393 = tested on: RXF 393
SK-MEL-2 = tested on: SK-MEL-2
SK-MEL-5 = tested on: SK-MEL-5
SK-OV-3 = tested on: SK-OV-3
SN12C = tested on: SN12C
SNB-75 = tested on: SNB-75
T47D = tested on: T47D
TK-10 = tested on: TK-10

## CCN(CC)CCNc1ccc(CO)c2sc3ccccc3c(=O)c12 [HYCANTHONE]
A498
  GI50: 8.22 µM (inactive)
A549
  GI50: 6.85 µM (inactive)
CAKI-1
  GI50: 5.92 µM (inactive)
DMS-114
  GI50: 11.5 µM (inactive)
EKVX
  GI50: 13.7 µM (inactive)
HCT-116
  GI50: 4.8 µM (inactive)
KM-20L2
  GI50: 5.37 µM (inactive)
LXFL 529
  GI50: 12.7 µM (inactive)
M19-MEL
  GI50: 13 µM (inactive)
MOLT-4
  GI50: 2.79 µM (inactive)
NCI-H226
  GI50: 13.9 µM (inactive)
NCI-H23
  GI50: > 10 µM (inactive)
NCI-H460
  GI50: 4.04 µM (inactive)
NCI-H522
  GI50: 4.04 µM (inactive)
OVCAR-4
  GI50: 5.37 µM (inactive)
OVCAR-5
  GI50: 12.5 µM (inactive)
OVCAR-8
  GI50: 6.37 µM (inactive)
RPMI-8226
  GI50: 10.8 µM (inactive)
SF-268
  GI50: 8.89 µM (inactive)
SF-295
  GI50: 7.14 µM (inactive)
SF-539
  GI50: 11.2 µM (inactive)
SK-MEL-28
  GI50: 16.8 µM (inactive)
SNB-19
  GI50: 9.51 µM (inactive)
SNB-78
  GI50: 12.7 µM (inactive)
SR
  GI50: 3.18 µM (inactive)
SW-620
  GI50: 5.48 µM (inactive)
U-251
  GI50: 10.5 µM (inactive)
UACC-257
  GI50: 15.8 µM (inactive)
UACC-62
  GI50: 19.5 µM (inactive)
UO-31
  GI50: 6.58 µM (inactive)

## CCOC(=O)C1C2C1C1C(C(=O)OCC)C21 (stereo not drawn)
786-0
  GI50: > 100 µM (inactive)
A498
  GI50: > 100 µM (inactive)
A549
  GI50: > 100 µM (inactive)
ACHN
  GI50: > 100 µM (inactive)
BT-549
  GI50: > 100 µM (inactive)
CAKI-1
  GI50: > 100 µM (inactive)
CCRF-CEM
  GI50: > 100 µM (inactive)
COLO 205
  GI50: > 100 µM (inactive)
DU-145
  GI50: > 100 µM (inactive)
EKVX
  GI50: > 100 µM (inactive)
HCC 2998
  GI50: > 100 µM (inactive)
HCT-116
  GI50: > 100 µM (inactive)
HCT-15
  GI50: > 100 µM
HL-60
  GI50: 63.8 µM (inactive)
HOP-62
  GI50: > 100 µM (inactive)
HOP-92
  GI50: > 100 µM (inactive)
HT-29
  GI50: 57.5 µM (inactive)
Hs-578T
  GI50: > 100 µM (inactive)
IGROV-1
  GI50: > 100 µM (inactive)
K562
  GI50: > 100 µM (inactive)
KM12
  GI50: > 100 µM (inactive)
LOX IMVI
  GI50: > 100 µM (inactive)
M14
  GI50: > 100 µM (inactive)
MCF7
  GI50: 51.3 µM (inactive)
MDA-MB-231
  GI50: > 100 µM (inactive)
MDA-MB-435
  GI50: > 100 µM (inactive)
MDA-N
  GI50: > 100 µM (inactive)
MOLT-4
  GI50: > 100 µM (inactive)
Malme-3M
  GI50: > 100 µM (inactive)
NCI-H226
  GI50: > 100 µM (inactive)
NCI-H23
  GI50: > 100 µM (inactive)
NCI-H460
  GI50: > 100 µM (inactive)
NCI-H522
  GI50: > 100 µM (inactive)
NCI/ADR-RES
  GI50: > 100 µM (inactive)
OVCAR-3
  GI50: > 100 µM (inactive)
OVCAR-4
  GI50: > 100 µM (inactive)
OVCAR-5
  GI50: > 100 µM (inactive)
OVCAR-8
  GI50: > 100 µM (inactive)
PC-3
  GI50: > 100 µM (inactive)
RPMI-8226
  GI50: 50.4 µM (inactive)
RXF 393
  GI50: 81.8 µM (inactive)
SF-268
  GI50: > 100 µM (inactive)
SF-295
  GI50: > 100 µM (inactive)
SF-539
  GI50: > 100 µM (inactive)
SK-MEL-28
  GI50: > 100 µM (inactive)
SK-MEL-2
  GI50: > 100 µM (inactive)
SK-MEL-5
  GI50: > 100 µM (inactive)
SK-OV-3
  GI50: > 100 µM (inactive)
SN12C
  GI50: > 100 µM (inactive)
SNB-19
  GI50: > 100 µM (inactive)
SNB-75
  GI50: > 100 µM (inactive)
SR
  GI50: 52 µM (inactive)
SW-620
  GI50: > 100 µM (inactive)
T47D
  GI50: 49.2 µM (inactive)
TK-10
  GI50: > 100 µM (inactive)
U-251
  GI50: > 100 µM (inactive)
UACC-257
  GI50: 61 µM (inactive)
UACC-62
  GI50: > 100 µM (inactive)
UO-31
  GI50: > 100 µM (inactive)

## COc1cc([C@@H]2c3[nH]c4ccccc4c3C(Nc3ccc([N+](=O)[O-])cc3)[C@H]3COC(=O)N23)cc(OC)c1O (stereo partly drawn)
786-0
  GI50: 0.177 µM (active)
A498
  GI50: 0.14 µM (active)
A549
  GI50: 0.0531 µM (active)
ACHN
  GI50: 0.118 µM (active)
BT-549
  GI50: 0.611 µM (active)
CAKI-1
  GI50: 0.247 µM (active)
CCRF-CEM
  GI50: 0.0395 µM (active)
COLO 205
  GI50: 0.548 µM (active)
DU-145
  GI50: 0.321 µM (active)
EKVX
  GI50: 1.78 µM (inactive)
HCC 2998
  GI50: 0.392 µM (active)
HCT-116
  GI50: 0.365 µM (active)
HCT-15
  GI50: 1.96 µM
HL-60
  GI50: < 0.01 µM (active)
HOP-62
  GI50: 0.0873 µM (active)
HOP-92
  GI50: 0.229 µM (active)
HT-29
  GI50: 0.228 µM (active)
Hs-578T
  GI50: 0.305 µM (active)
IGROV-1
  GI50: 0.406 µM (active)
K562
  GI50: 0.179 µM (active)
KM12
  GI50: 0.326 µM (active)
LOX IMVI
  GI50: 0.0822 µM (active)
M14
  GI50: 0.321 µM (active)
MCF7
  GI50: 0.0361 µM (active)
MDA-MB-231
  GI50: 0.352 µM (active)
MDA-MB-435
  GI50: 0.505 µM (active)
MDA-N
  GI50: 0.875 µM (active)
MOLT-4
  GI50: 0.014 µM (active)
Malme-3M
  GI50: 0.161 µM (active)
NCI-H226
  GI50: 0.138 µM (active)
NCI-H23
  GI50: 0.111 µM (active)
NCI-H460
  GI50: < 0.0181 µM (active)
NCI-H522
  GI50: 0.407 µM (active)
NCI/ADR-RES
  GI50: > 86.3 µM (inactive)
OVCAR-3
  GI50: 0.382 µM (active)
OVCAR-4
  GI50: 1.74 µM (inactive)
OVCAR-5
  GI50: 0.369 µM (active)
OVCAR-8
  GI50: 0.285 µM (active)
PC-3
  GI50: 0.698 µM (active)
RPMI-8226
  GI50: 0.0652 µM (active)
RXF 393
  GI50: 0.382 µM (active)
SF-268
  GI50: 0.299 µM (active)
SF-295
  GI50: 0.125 µM (active)
SF-539
  GI50: 0.124 µM (active)
SK-MEL-28
  GI50: 0.291 µM (active)
SK-MEL-2
  GI50: 0.847 µM (active)
SK-MEL-5
  GI50: 0.0914 µM (active)
SK-OV-3
  GI50: 0.269 µM (active)
SN12C
  GI50: 0.187 µM (active)
SNB-19
  GI50: 0.127 µM (active)
SNB-75
  GI50: 0.175 µM (active)
SR
  GI50: 0.0481 µM (active)
SW-620
  GI50: 0.248 µM (active)
T47D
  GI50: 0.466 µM (active)
TK-10
  GI50: 0.446 µM (active)
U-251
  GI50: 0.147 µM (active)
UACC-257
  GI50: 0.857 µM (active)
UACC-62
  GI50: 0.195 µM (active)
UO-31
  GI50: 1.27 µM (inactive)
